From US20030166007A1, “Chemical proteomics” (MDS Proteomics Inc., priority 2002, published 2003)
Entries after “also recorded” stand apart in the source; their conditions may differ.

What was measured:
[1] = target: T1, Divalent Cation tolerant protein CUTA (Homo sapiens, UniProt O60888); experiment: MTX-agarose affinity chromatography of cell lysate, MS identification; assay type: binding; conditions: HEK 293 lysate
T1 construct: endogenous in cells; host or cells: HEK 293
T1 sequence (O60888 33-179): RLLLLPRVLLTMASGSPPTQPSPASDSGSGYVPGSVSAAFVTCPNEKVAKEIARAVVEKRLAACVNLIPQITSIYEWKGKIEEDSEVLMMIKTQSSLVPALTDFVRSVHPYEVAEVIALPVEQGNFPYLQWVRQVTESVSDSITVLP
Experimental: (§1) After incubation for 30 minutes at 4° C. with shaking, the lysates were clarified by centrifugation (27,000×g). In some experiments, cells were lysed using 20 strokes of a Dounce® homogenizer in the absence of detergents. […] While optimizing the protocol, however, several experimental variations were tested on cell lysates including concentration by ammonium sulfate precipitation, or removal of nucleic acid with Streptomycin sulfate. In such cases, the protein sample was desalted using a PD 10 protein-desalting column (Pharmacia), which had been pre-equilibrated in the same buffer (10 mM potassium phosphate pH 7.5)
(§2) Affinity Chromatography: The desalted lysate was loaded onto a column of pre-equilibrated MTX-agarose (Sigma, 50 μL bed volume) or sepharose 4B agarose as a negative control. The lysates were allowed to slowly flow through the matrix under gravity flow. […] Retentates from the microcons were then loaded onto SDS-PAGE 4%-15% gradient mini gels (Bio-Rad). […]
(§3) The peptides were then separated by reverse phase chromatography on C18 resin and directly injected into a mass spectrometer using an automated sample-loading device from 96 well plates. […] The spectra generated were analyzed on a custom-built multi-node server platform (RADARS, ProteoMetrics), which uses two database searching programs, Sonar (ProteoMetrics) and Mascot (Matrix Sciences). […]

[2] = target: T2, Propionyl CoA carboxylase (Homo sapiens, UniProt P05165+P05166); experiment: as above; assay type: binding; conditions: HEK 293 lysate
T2 construct: endogenous in cells; host or cells: HEK 293
T2 sequence (P05165 53-728): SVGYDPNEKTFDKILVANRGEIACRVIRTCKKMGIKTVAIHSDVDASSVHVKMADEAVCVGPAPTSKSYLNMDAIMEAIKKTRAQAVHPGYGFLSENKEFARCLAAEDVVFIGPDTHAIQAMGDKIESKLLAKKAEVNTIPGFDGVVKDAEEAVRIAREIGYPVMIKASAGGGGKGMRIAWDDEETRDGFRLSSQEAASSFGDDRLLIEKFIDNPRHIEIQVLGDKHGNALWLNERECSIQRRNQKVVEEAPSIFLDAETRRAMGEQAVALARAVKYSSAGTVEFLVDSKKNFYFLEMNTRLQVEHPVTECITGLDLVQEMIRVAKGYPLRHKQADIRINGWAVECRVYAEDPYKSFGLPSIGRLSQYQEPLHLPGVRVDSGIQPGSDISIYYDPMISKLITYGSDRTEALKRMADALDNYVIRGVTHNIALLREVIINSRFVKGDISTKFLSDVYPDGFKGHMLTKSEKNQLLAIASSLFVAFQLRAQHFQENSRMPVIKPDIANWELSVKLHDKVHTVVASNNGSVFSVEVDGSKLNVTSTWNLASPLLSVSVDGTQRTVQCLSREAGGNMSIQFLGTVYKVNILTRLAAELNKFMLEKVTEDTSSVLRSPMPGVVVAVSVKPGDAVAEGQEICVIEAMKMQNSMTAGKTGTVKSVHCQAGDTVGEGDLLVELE
T2 sequence (P05166 29-539): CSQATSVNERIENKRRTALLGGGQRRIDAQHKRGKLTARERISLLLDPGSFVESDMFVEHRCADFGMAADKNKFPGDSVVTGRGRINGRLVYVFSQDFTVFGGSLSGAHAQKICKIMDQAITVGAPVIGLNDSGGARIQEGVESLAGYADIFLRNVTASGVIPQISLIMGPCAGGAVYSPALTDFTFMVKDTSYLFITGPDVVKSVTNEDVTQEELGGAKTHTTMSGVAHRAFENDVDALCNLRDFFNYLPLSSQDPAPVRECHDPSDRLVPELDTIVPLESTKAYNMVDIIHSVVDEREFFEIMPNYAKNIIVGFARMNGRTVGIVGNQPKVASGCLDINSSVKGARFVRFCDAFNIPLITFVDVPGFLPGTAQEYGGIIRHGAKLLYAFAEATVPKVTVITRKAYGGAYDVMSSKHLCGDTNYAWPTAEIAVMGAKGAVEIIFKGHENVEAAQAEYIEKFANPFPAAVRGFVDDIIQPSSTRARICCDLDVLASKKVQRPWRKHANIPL
Experimental: as §1, §2, §3

[3] = target: T3, Hypoxanthine phosphoribosyltransferase (HPRT) (Homo sapiens, UniProt P00492); experiment: as above; assay type: binding; conditions: HEK 293 lysate, lane 9
T3 construct: endogenous in cells; host or cells: HEK 293
T3 sequence (P00492 1-218): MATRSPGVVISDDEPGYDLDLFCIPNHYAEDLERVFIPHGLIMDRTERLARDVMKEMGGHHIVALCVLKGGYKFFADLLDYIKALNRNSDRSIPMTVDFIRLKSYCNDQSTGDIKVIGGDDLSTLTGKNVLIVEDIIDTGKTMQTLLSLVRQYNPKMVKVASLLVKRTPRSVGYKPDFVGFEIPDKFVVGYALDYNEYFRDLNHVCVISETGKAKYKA
Experimental: as §1, §2, §3

[4] = target: T4, AIR carboxylase (Homo sapiens, UniProt P22234); experiment: as above; assay type: binding; conditions: HEK 293 lysate
T4 construct: endogenous in cells; host or cells: HEK 293
T4 sequence (P22234 1-425): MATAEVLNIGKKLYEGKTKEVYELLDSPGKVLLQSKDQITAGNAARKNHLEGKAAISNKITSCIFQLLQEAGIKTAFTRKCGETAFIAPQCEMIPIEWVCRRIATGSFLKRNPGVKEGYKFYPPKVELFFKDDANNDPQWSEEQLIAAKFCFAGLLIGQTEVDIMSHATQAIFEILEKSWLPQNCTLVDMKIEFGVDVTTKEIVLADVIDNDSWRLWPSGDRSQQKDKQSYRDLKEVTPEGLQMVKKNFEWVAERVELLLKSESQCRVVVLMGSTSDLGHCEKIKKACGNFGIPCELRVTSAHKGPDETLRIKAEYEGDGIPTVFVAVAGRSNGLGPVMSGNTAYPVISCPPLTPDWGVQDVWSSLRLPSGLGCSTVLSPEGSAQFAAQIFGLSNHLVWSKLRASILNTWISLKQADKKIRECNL
Experimental: as §1, §2, §3

[5] = target: T5, SAICAR synthetase (Homo sapiens, UniProt P22234); experiment: as above; assay type: binding; conditions: HEK 293 lysate; bifunctional enzyme with AIR carboxylase
T5 construct: endogenous in cells; host or cells: HEK 293
T5 sequence (P22234 1-425): T4 sequence (P22234 1-425)
Experimental: as §1, §2, §3

[6] = target: Amido phosphoribosyltransferase (Homo sapiens, UniProt Q06203); experiment: as above; assay type: binding; set-up: endogenous in cells; host or cells: HEK 293 (also Jurkat, K562, A431); conditions: lysates from HEK293, Jurkat, K562 and A431
Experimental: as §1, §2, §3

[7] = target: T6, Nudix 5 (Homo sapiens, UniProt Q9UKK9); experiment: as above; assay type: binding; conditions: HEK 293 lysate
T6 construct: endogenous in cells; host or cells: HEK 293
Experimental: as §1, §2, §3

[8] = tested on: Glycogen Phosphorylase; experiment: as above; assay type: binding, human; conditions: HEK 293 lysate
Experimental: as §1, §2, §3

[9] = tested on: Inosine monophosphate dehydrogenase; experiment: as above; assay type: binding, human; conditions: HEK 293 lysate
Experimental: as §1, §2, §3

[10] = target: T7, HPRT (Homo sapiens, UniProt P00492); conditions: cited from earlier work
T7 sequence (P00492 1-218): T3 sequence (P00492 1-218)

[11] = target: T8, Pterin-4-alpha-carbinolamine dehydrogenase (PCD) (Homo sapiens, UniProt P61457); experiment: MTX-agarose affinity chromatography of cell lysate, MS identification; assay type: binding; conditions: HEK 293 lysate
T8 construct: endogenous in cells; host or cells: HEK 293
T8 sequence (P61457 1-104): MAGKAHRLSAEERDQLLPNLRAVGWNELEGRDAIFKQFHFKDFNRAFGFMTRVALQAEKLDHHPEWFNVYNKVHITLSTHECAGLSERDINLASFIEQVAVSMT
Experimental: as §1, §2, §3

Amido phosphoribosyltransferase, sequence (Q06203 12-517): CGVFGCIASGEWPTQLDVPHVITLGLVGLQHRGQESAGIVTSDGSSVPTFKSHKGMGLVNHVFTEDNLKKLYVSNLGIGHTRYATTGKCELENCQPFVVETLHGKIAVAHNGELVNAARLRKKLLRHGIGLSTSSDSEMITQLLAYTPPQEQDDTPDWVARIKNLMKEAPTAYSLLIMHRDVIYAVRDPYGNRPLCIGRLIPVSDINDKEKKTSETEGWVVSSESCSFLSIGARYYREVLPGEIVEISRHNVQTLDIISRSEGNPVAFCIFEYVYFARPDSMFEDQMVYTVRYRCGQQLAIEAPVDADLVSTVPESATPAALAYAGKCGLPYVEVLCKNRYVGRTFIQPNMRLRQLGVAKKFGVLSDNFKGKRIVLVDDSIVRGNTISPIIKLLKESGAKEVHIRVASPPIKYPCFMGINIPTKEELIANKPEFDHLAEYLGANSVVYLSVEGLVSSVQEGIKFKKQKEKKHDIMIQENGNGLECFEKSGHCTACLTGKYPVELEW

CN(Cc1cnc2nc(N)nc(N)c2n1)c1ccc(C(=O)N[C@@H](CCC(=O)O)C(=O)O)cc1 [Methotrexate]
Association with the Methotrexate matrix [1]: consistently found; also recorded: pulled down consistently | Association with the Methotrexate matrix [2]: pulled down consistently | Protein identified by Mass Spec.; New MTX interactor [3]: identified in the pull down in lane 9 | Protein identified by Mass Spec.; New MTX interactor ([3]; listed as MTX): ✓ | Association with the Methotrexate matrix [4]: associated indirectly with Methotrexate | Association with the Methotrexate matrix [5]: a single band contained peptides from both domains | Protein identified by Mass Spec.; New MTX interactor [6]: found to interact with Methotrexate | Protein identified by Mass Spec.; New MTX interactor ([6]; listed as MTX): ✓ | Association with the Methotrexate matrix [7]: consistently found; also recorded: direct interactions with the Methotrexate probe | Protein identified by Mass Spec.; New MTX interactor [8]: direct binder of Methotrexate | Protein identified by Mass Spec.; New MTX interactor ([8]; listed as MTX): ✓ | Protein identified by Mass Spec.; New MTX interactor [9]: binds this enzyme directly | Protein identified by Mass Spec.; New MTX interactor ([9]; listed as MTX): ✓ | effect on activity of HPRT [10]: can reduce the activity of HPRT | Protein identified by Mass Spec.; New MTX interactor [11]: binds directly to Methotrexate | Protein identified by Mass Spec.; New MTX interactor ([11]; listed as MTX): ✓
